Data: US20250327140A1, “A METHOD OF DETERMINING THE DOSE OF PSYCHEDELICS” (priority 2022, published 2025)

What was measured:
ABCF1 [1] = assay: qPCR of ABCF1 transcription in macrophage cell line RAW264.7, dose response with psychedelics; format: cell-based, murine; conditions: RAW264.7, 10 nM, 100 nM, 500 nM, 2 hours post treatment
Experimental: • 1. Macrophage cell line RAW264.7 (ATCC) were grown to 80% confluency in growth media (DMEM+10% FBS+glutamine). • 2. Dilutions of the drugs were made at desired final concentrations for a Dose response experiment. The concentrations' used for this experiment are: 10 nM, 100 nM, 500 nM for Psilocin, Psylocibin, 4-Acetoxy-N, N-dimthyltryptamine, O-Acetyl Psilocin Fumerate, and 4-acetoxyindole. • 3. Untreated cells were used as negative control and Escitalopram at 0.3 mM was used as a positive control to activate ABCF1 expression for all the experiments. Analysis by qPCR:
• 1. 2 hours post treatment with drugs, the reaction was stopped by removing the media with the drug. Cells were then collected and RNA was isolated from these. • 2. After checking the quality of the RNA, cDNA was generated and qPCR was run with ABCF1 primers as the target gene and GAPDH as the house keeping gene. • 3. Normalized against the expression level of GAPDH, the fold change expression level of ABCF1 was calculated and tabulated for all treatment conditions.

[2] = tested on: ABCF1 promoter (eGFP reporter); assay: DC2.4 cells transfected with ABCF1-GFP reporter construct, drug screening by fluorescence; format: cell-based; conditions: for induction of ABCF1-EGFP-IRES (FIG. 11): DC2.4 cells with ABCF1 GFP construct
Source text: Cells for use in a high-throughput cell-based screening assay to screen for drugs and genes that stimulate ABCF1 expression were created. In particular, the cells comprise a construct comprising the ABCF1 promoter linked to the sequence encoding eGFP. In the assay, drugs/compositions may be screened for modulating expression of ABCF1 by measuring fluorescence. • 1. DC2.4 cell line was used for the ABCF1-GFP vector (FIG. 7) transfection. DC 2.4 cell line was used as these cells have low endogenous ABCF1 expression. • 2. After 3 days, based on the fluorescent signal, those transfected cells were single cell sorted using cell sorter, compared with DC2.4 cell line without transfection as a negative control. (Those cells with some fluorescent signals were transfected successfully as expected) • 3. Those single cells were collected in a 96 well plate and grown around 2 weeks using DMEM+10% FBS+1% PS, and 12 colonies were picked. • 4. Expended 12 colonies into 24 well plate to grow continuously around 2 weeks with DMEM+10% FBS+1% PS+[…] Hygromycin (selection antibiotics which inserted in the vector) to keep the majority of cells which containing the vector. • 5. 5 colonies were growing well and checked the colonies ABCF1 expression level (checked the GFP reporter in between negative control and positive control (50 uM and 100 μM) to see which colonies is the best to be drug screening cell). • See FIGS. 8 to 11.

ABCF1 [3] = assay: real time RT-PCR specific for ABCF1 and IL-4 in RAW macrophages incubated with Escitalopram; format: cell-based, murine; conditions: 0.3 mM, 1 hour
Experimental: RAW macrophages were plated at 1×10^5 cells/well and cultured for 2 days. The cells were incubated with 0.3 mM Escitalopram for 1 hour, and then harvested for total RNA, which was extracted for real time RT-PCR specific for ABCF1 and IL-4. CT values were normalized with CT value for the housekeeping gene from the DMSO control.

Row | SMILES | ABCF1 transcription (fold change vs GAPDH) (ABCF1 [1]) | induction of ABCF1-EGFP-IRES (FIG. 11) [2] | ABCF1 upregulation (FIG. 10) ([2]; after 1 hour drug treatment) | difference in ABCF1 and IL-4 expression after drug treatment (macrophage polarization) (ABCF1 [3]; consistent in 3 separate experiments) | ABCF1 induction in a macrophage cell line (ABCF1 [3]; real time RT-PCR)
1 | CN(C)CCc1c[nH]c2cccc(O)c12 [psylocin, Psilocin] | upregulate |  |  |  | 
2 | CC(=O)Oc1cccc2[nH]ccc12 [AOI, 4-acetoxyindole] |  | induction | upregulates |  | 
3 | CN(C)CCC[C@@]1(c2ccc(F)cc2)OCc2cc(C#N)ccc21 [Escitalopram] |  | induction |  | consistent with polarization towards an M2-like phenotype | Induces
